The species entered for experiment [1] is Homo sapiens. In words: Activation of recombinant His-tagged human cytosolic GPX4 U46C mutant expressed in Escherichia coli M15 assessed as increase in oxidized glutathione-mediated oxidation of NADPH to NADP+ using tert-butyl hydroperoxide as substrate preincubated for 5 mins followed by substrate addition measured for 6 mins by glutathione reductase enzyme coupled fluorescence assay.

The species named for experiment [2] is Homo sapiens. Description: Activation of recombinant His-tagged human cytosolic GPX4 U46C mutant expressed in Escherichia coli M15 assessed as increase in oxidized glutathione-mediated oxidation of NADPH to NADP+ at 0.4 to 250 uM using tert-butyl hydroperoxide as substrate preincubated for 5 mins followed by substrate addition measured for 6 mins by glutathione reductase enzyme coupled fluorescence assay relative to control.

The nature of experiment [3]: Binding affinity to recombinant His-tagged human cytosolic GPX4 U46C mutant expressed in Escherichia coli M15 by SPR analysis.
The species named for experiment [4] is Homo sapiens. In words: Activation of recombinant His-tagged human cytosolic GPX4 U46C mutant expressed in Escherichia coli M15 assessed as increase in oxidized glutathione-mediated oxidation of NADPH to NADP+ at 200 uM using tert-butyl hydroperoxide as substrate preincubated for 5 mins followed by substrate addition measured for 6 mins by glutathione reductase enzyme coupled fluorescence assay relative to control.

The species entered for experiment [5] is Homo sapiens. Description: Activation of recombinant human GPX4 D21A/U46C double mutant expressed in Escherichia coli M15 assessed as increase in oxidized glutathione-mediated oxidation of NADPH to NADP+ using tert-butyl hydroperoxide as substrate preincubated for 5 mins followed by substrate addition measured for 6 mins by glutathione reductase enzyme coupled fluorescence assay relative to GPX4 U46C mutant control.

The species named for experiment [6] is Homo sapiens. Description: Activation of recombinant human GPX4 D23A/U46C double mutant expressed in Escherichia coli M15 assessed as increase in oxidized glutathione-mediated oxidation of NADPH to NADP+ using tert-butyl hydroperoxide as substrate preincubated for 5 mins followed by substrate addition measured for 6 mins by glutathione reductase enzyme coupled fluorescence assay relative to GPX4 U46C mutant control.

The species entered for experiment [7] is Homo sapiens. In words: Activation of recombinant human GPX4 D21A/D23A/U46C mutant expressed in Escherichia coli M15 assessed as increase in oxidized glutathione-mediated oxidation of NADPH to NADP+ using tert-butyl hydroperoxide as substrate preincubated for 5 mins followed by substrate addition measured for 6 mins by glutathione reductase enzyme coupled fluorescence assay relative to GPX4 U46C mutant control.

Experiment [8] is described as follows: Binding affinity to recombinant human GPX4 D21A/D23A double mutant expressed in Escherichia coli M15 by SPR analysis. A general note: In SPR one partner is held on a chip, and binding of the other changes the refractive index at the surface.
In experiment [9] the target is Phospholipid hydroperoxide glutathione peroxidase GPX4 (Mus musculus) (UniProt O70325). In words: Activation of GPX4 in MEF assessed as increase in oxidized glutathione-mediated oxidation of NADPH to NADP+ using tert-butyl hydroperoxide as substrate preincubated for 5 mins followed by substrate addition measured for 6 mins by glutathione reductase enzyme coupled fluorescence assay. Type of experiment: cell-based.
Phospholipid hydroperoxide glutathione peroxidase GPX4 (Mus musculus), sequence (O70325 whole entry): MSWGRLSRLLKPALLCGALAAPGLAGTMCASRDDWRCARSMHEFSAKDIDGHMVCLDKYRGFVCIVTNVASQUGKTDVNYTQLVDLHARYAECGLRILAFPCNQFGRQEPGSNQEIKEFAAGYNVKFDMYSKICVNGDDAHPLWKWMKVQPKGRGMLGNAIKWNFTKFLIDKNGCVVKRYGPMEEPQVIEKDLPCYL

Experiment [10] in a line: Zinc chelating activity in presence of ZnSO4 after 10 mins by crystal violet staining based assay.
Experiment [11] in a line: Iron chelating activity assessed as compound-Fe2+ complex formation after 10 mins by Prussian blue assay.
The target of experiment [12] is Phospholipid hydroperoxide glutathione peroxidase GPX4 (Mus musculus) (UniProt O70325). Description: Activation of GPX4 in MEF assessed as increase in […] protection against CHOOH-induced cell death at 200 uM. Type of experiment: cell-based.
The nature of experiment [13]: Antioxidant activity assessed as DPPH radical scavenging activity at 500 uM. Type of experiment: functional. For orientation: The DPPH test is a chemical assay of radical scavenging.

Calls of active or inactive are those of the source. No cut-off for these calls is given here.

As a reminder, the Emax is the size of the effect at its maximum, as opposed to the concentration needed. By Kd is commonly meant a measure of binding affinity in units of concentration.

For the compound `NCCNS(=O)(=O)c1ccc(NC(=S)NC2CCCC2)cc1`, the EC150 turned out to be 20 µM in [1]; 367 µM in experiment [5]; 235 µM in [6]; 382 µM in experiment [7]; 61 µM in experiment [9]. The Emax in experiment [2] stood at 279%. Moreover, the dissociation constant Kd in experiment [3] amounted to 19 µM; in experiment [8] it was 374 µM. Also, the values for the Activity in experiment [4] and in [9] were 219% and “Dose-dependent effect”, respectively. The outcome in experiment [10], in experiment [11] and in [13] was inactive. In addition, the outcome in experiment [12] was Active.
On to `NCCCCNS(=O)(=O)c1ccc(NC(=S)NC2CCCC2)cc1`, for which the Activity in [4] was < 115%.
On to `CNCCNS(=O)(=O)c1ccc(NC(=S)NC2CCCC2)cc1`, for which, in experiment [1], the EC150 worked out at 121 µM. Further, the Emax in [2] was 209%. In addition, in [4], the Activity was 167%.
Turning to `NCCNS(=O)(=O)c1ccc(NC(=S)NC2CCCCC2)cc1`, in [4], the Activity is < 115%.
Turning to `CCNC(=S)Nc1ccc(S(=O)(=O)NCCN)cc1`, in experiment [4], the Activity was < 115%.
As to `NCCCNS(=O)(=O)c1ccc(NC(=S)NC2CCCC2)cc1`, the EC150 in experiment [1] came to 301 µM. The maximal response (Emax) in experiment [2] stood at 214%. Moreover, the Activity in experiment [4] came to 121%.
Taken in the same sequence, the figures for `CC(C)(C)NC(=S)Nc1ccc(S(=O)(=O)NCCN)cc1` were 29 µM, 437% and 318%.
`O=S(=O)(NCCO)c1ccc(NC(=S)NCc2ccc(Cl)cc2)cc1`: the Activity in experiment [4] was < 115%.
On the same count and under the same terms, for `NCCNS(=O)(=O)c1ccc(NC(=S)NC2CCCCCC2)cc1` the value was < 115%; for `O=S(=O)(NCCO)c1ccc(NC(=S)NC2CCCC2)cc1`, < 115%; for `NCCNS(=O)(=O)c1ccc(NC(=S)NCc2ccc(Cl)cc2)cc1`, < 115%.
For the compound `CN1CCN(C(S)=Nc2ccc(S(N)(=O)=O)cc2)CC1`, the Activity entry in experiment [1] was “Dose-dependent effect”; in experiment [4] it was 115%. In addition, the EC150 in [1] worked out at 285 µM. Moreover, the Emax in experiment [2] came to 200%.
Take `CCNS(=O)(=O)c1ccc(NC(=S)NC2CCCC2)cc1`: the Activity in experiment [4] is < 115%.
As for `NS(=O)(=O)c1ccc(NC(=S)NCCO)cc1`, the Activity result in experiment [1] is “Dose-dependent effect”; in [4], 167%. For the same compound, in [1], the EC150 stood at 147 µM. The Emax in experiment [2] amounted to 225%.
In the case of `NS(=O)(=O)c1ccc(NC(S)=NCc2ccccc2)cc1`, in experiment [1], the Activity result is “Dose-dependent effect” and the EC150 stood at 255 µM. Moreover, the Emax in experiment [2] amounted to 300%. In [4], the Activity was found to be 129%.

For the origin of these results see ChEMBL document CHEMBL4308834, “Novel Allosteric Activators for Ferroptosis Regulator Glutathione Peroxidase 4” (J Med Chem, 2018).
